Assay results: patent publication US5780675A, “Deoxygossylic compounds” (The University of New Mexico, priority 1995, dated 1998)
pEC50, pKd: −log10 of the molar value. “Also recorded” adds a separate entry of the source. Read-outs that look alike come from different tables or passages of the source.

What was measured:
[1] = system: H9/HIV-IIIB strain of the HIV-1 virus; assay: Inhibition of HIV replication, focal immunoassay (foci reduction) in HT46c cells; assay type: cell-based; settings: for reduction in foci (in words): 5 μM, GIL and BDGA compared; for pEC50: Human immunodeficiency virus 1, 72 h, 3 days at 37° C.; for pEC50 / anti-HIV activity (in words): H9/HIV-IIIB in HT46c cells; for anti-HIV activity (in words): in vitro, compared with BDGA and/or GIL where stated
Protocol: 1,1'-bisdeoxygossypol (BDG), 1,1'-bisdeoxygossylic acid (BDGA), 8-deoxyhemigossypol (DHG) and 8-deoxyhemigossylic acid (DHGA) were synthesized and tested for their ability to inhibit the replication of HIV in vitro. The EC50 for BDGA was <1 μM and its threshold cytotoxicity was approximately 20 μM. […] Like BDGA, the Ec50 for GIL was <1 μM. […] BDG, on the other hand, was ineffective at 1 μM and destroyed >80% of the cell monolayer at 5 μM.
The anti-HIV assay used was based on a published procedure (J. Virol. 62:3779-3788, 1988) using HT46c (HeLaT4+) cells as host cells for the H9/HIV-IIIB strain of the HIV-1 virus. The cells were seeded into 6-well plates, 5×10^4 cells/well, in RPMI 1640 with 10% FBS and allowed to attach overnight. After treatment of the wells with DEAE-dextran, stock virus was added at a concentration that produces 100-200 foci/well on day 3 in positive control wells. Test compounds were added, and plates incubated for 3 days at 37° C., 5% CO2. Monolayers were fixed with methanol and wells analyzed with a focal immunoassay (FIA). The primary reagent used in the FIA was a polyclonal antibody preparation of sera from AIDS patients. The secondary reagent was a goat anti-human IgG antibody tagged with horseradish peroxidase. The substrate was 3-amino-9-ethylcarbazole in sodium acetate buffer with hydrogen peroxide. Each compound was tested at concentrations of 0.01, 0.1, 1.0, 5.0 and 20 μM. GIL was tested as a standard for comparison.

[2] = Cytotoxicity: changes in cell morphology or loss of monolayer adherence in HT46c cells; assay type: cell-based; settings: human; for MCC at 72 h: HT46c cells, 3 days, lowest concentration with detectable morphology change or loss of monolayer adherence, read-out: threshold cytotoxicity
HT46c (HeLaT4+) cells = assay: as above; assay type: cell-based; settings: for toxicity (in words): 5.0 μM; for cytotoxicity (in words): HT46c cells, compared with BDGA and/or GIL where stated
human serum albumin [3] = target: T1, human serum albumin (Homo sapiens, UniProt P02768); assay: Binding to human serum albumin, fluorescence quenching titration; settings: 25° C., pH 7.4, read-out: Dissociation constant (Kd) for binding to human serum albumin
Protocol: Table I below lists the dissociation constants (Kds) for binding of compounds 1-6 to human serum albumin. The Kd for gossypol was determined by multiple methods as reported in FEBS Lett. 157:28-30, 1983. The Kds for compounds 2-6 were determined by fluorescence quenching titrations.
These experiments were carried out at 25° C. in 2 mL volumes of 0.2M potassium phosphate buffer (pH 7.4) containing 0.1M sodium chloride. Aliquots of a 1 mM stock solution of test compound in DMSO were added to a 10 μM solution of human serum albumin in the buffer. Fluorescence was measured with a Perkin Elmer model LS 50 luminescence spectrometer. The Kds were determined by plotting the reciprocal of free ligand concentration versus the reciprocal of fractional quenching. This plot provides -1/Kd as the x-intercept. Details of the calculations employed are set forth in J. Pharm. Sci. 77:237-240 (1988).

human serum albumin [4] = target: T1, human serum albumin; settings: gossypol, determined by multiple methods as reported in FEBS Lett. 157:28-30, 1983; read-out: Dissociation constant (Kd) for binding to human serum albumin; cited from earlier work
[5] = previous or background findings; GIL compared with gossypol; cited from earlier work
HIV = settings: previously found, in vitro, similar assays; cited from earlier work

T1 sequence (P02768 25-609): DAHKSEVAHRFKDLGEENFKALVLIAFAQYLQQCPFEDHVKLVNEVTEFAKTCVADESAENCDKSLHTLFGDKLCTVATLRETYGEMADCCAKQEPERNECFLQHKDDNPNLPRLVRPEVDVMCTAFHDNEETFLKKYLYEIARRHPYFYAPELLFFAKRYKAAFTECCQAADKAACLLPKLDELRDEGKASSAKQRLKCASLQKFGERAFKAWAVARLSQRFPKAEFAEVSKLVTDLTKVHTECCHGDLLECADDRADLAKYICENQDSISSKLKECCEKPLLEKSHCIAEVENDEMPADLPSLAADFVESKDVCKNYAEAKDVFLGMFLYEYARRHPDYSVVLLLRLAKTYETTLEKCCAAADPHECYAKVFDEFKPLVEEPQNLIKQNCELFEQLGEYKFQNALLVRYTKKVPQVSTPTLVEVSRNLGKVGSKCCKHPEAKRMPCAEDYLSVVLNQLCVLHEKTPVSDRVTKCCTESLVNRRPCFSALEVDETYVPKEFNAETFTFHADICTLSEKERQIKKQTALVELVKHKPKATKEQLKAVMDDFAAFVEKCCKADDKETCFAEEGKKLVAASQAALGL

| SMILES | reduction in foci (in words) [1] | pEC50 [1] | anti-HIV activity (in words) [1] | MCC at 72 h [2] | toxicity (in words) (HT46c (HeLaT4+) cells) | pKd (human serum albumin [3]) | cytotoxicity (in words), previous findings [5] | cytotoxicity (in words) (HT46c (HeLaT4+) cells) | further results |
| --- | --- | --- | --- | --- | --- | --- | --- | --- | --- |
| Cc1cc2c(C(C)C)c(O)c(O)c(C(=O)O)c2cc1-c1cc2c(C(=O)O)c(O)c(O)c(C(C)C)c2cc1C [BDGA, 6,6',7,7'-Tetrahydroxy-3,3'-dimethyl-5,5'-bis(1-methylethyl) [2,2'-binaphthalene]-8,8'-dicarboxylic Acid] | same reduction in foci | > 6.00 | approximately as effective as GIL | ~20 µM | No toxicity was noted | 5.82 | – | – | monolayer destruction (in words) (HT46c (HeLaT4+) cells; 20 μM): Some signs of monolayer destruction |
| Cc1cc2c(C(C)C)c(O)c(O)c(C=O)c2c(O)c1-c1c(C)cc2c(C(C)C)c(O)c(O)c(C=O)c2c1O [gossypol] | – | – | – | – | – | – | significantly cytotoxic at effective dosage levels | – | pKd (human serum albumin [4]): 7.05 |
| Cc1ccc2c(C=O)c(O)c(O)c(C(C)C)c2c1 [DHG, 2,3-dihydroxy-6-methyl-4-(1-methylethyl)-1-naphthaldehyde] | – | – | some anti-HIV activity; also recorded: less active | 5 µM | – | 6.18 | – | more cytotoxic | – |
| Cc1cc2c(C(C)C)c(O)c(O)c3c2c(c1-c1c(C)cc2c(C(C)C)c(O)c(O)c4c2c1OC4=N)OC3=N [GIL, reference compound] | same reduction in foci | > 6.00 | – | – | No toxicity was noted | 5.52 | less cytotoxic than gossypol | – | anti-HIV activity relative to gossypol (in words) (HIV): more active; also recorded: more effective than gossypol |
| Cc1ccc2c(C(=O)O)c(O)c(O)c(C(C)C)c2c1 [DHGA, 2,3-dihydroxy-6-methyl-4-(1-methylethyl)-1-naphthoic Acid] | – | – | ineffective against HIV | – | – | 5.28 | – | very low cytotoxicity | effect on viral replication (in words) ([1]; even at 20 μM): no observable effect on viral replication; effect on cell morphology (in words) (HT46c (HeLaT4+) cells; even at 20 μM): no observable effect on viral replication or cell morphology |
| Cc1cc2c(C(C)C)c(O)c(O)c(C=O)c2cc1-c1cc2c(C=O)c(O)c(O)c(C(C)C)c2cc1C [BDG, 6,6',7,7'-Tetrahydroxy-3,3'-dimethyl-5,5'-bis(1-methylethyl) [2,2'-binaphthalene]-8,8'-dicarboxaldehyde] | – | – | less effective against HIV | – | – | 5.92 | – | much more cytotoxic than BDGA | anti-HIV effect (in words) ([1]; 1 μM): ineffective; cytotoxicity at 5 µM ([2]; ht46c cells, 5 μM, read-out: cell monolayer destroyed): > 80% |
